{"source": "patent US11352374B2", "about": "(University of Alaska Anchorage, priority 2015, dated 2022)", "key": {"[1]": {"assay": "CO released in the presence of Fenton reagent (hydroxyl radical), CO meter", "assay_type": "physicochemical", "conditions": "per 5 minutes", "protocol": "(§1) A test to confirm that CO is one of the decomposition products from CORCBs is done by utilizing commercially available CO meter. Four mole of the compounds at the concentrations of 6-12 mg/mL in aqueous solution was incubated at 37° C. in a sealed vessel with 50 mL gas space. CO meter was used to read the concentration of liberated CO gas from the solution. Measurement by CO meter in ppm, after converting to the micromole amount, was used for calculating the percent CO released based on the original amount of compound.\nAll amine carboxyboranes express a faster CO release rate when incubated with the reactive oxygen species. The two tested are the common ROS formed naturally in the cells—a non-radical hydrogen peroxide (H2O2) and Fenton reagent which is a more reactive hydroxyl radical (.OH) formed from Fe^2+ and H2O2. Four mole of CORCB compounds were mixed in an aqueous solution with ROS and incubated in a sealed vessel. At respective times, the head space air was injected into the meter to read the amount of CO produced. For analysis by NMR spectroscopy, the reaction mixture was prepared in NMR tube in D2O solvent and incubated for the amount of time indicated. While some CORCBs have increased amount of CO produced when treated with 3 times equivalents of H2O2, CORCB-1 produces similar or less amount of CO. In every sample, either acid or salt form, the hydroxyl radical extracts the amount of CO to a much higher magnitude within a very short amount of time."}, "horse Mb": {"system": "horse Mb", "assay": "Myoglobin (Mb) assay: deoxy-Mb to carboxy-Mb", "assay_type": "biochemical", "conditions": "in one hour; 69 μM deoxy-Mb, 50× excess compound, 37° C.; compound per FIG. 2 legend", "protocol": "Since there was no literature that reported the use of CO meter with CO releasing molecules, to further confirm that CORCBs release CO, Mb assay was performed using the standard procedure used with other CO releasing compounds. In brief, 1 mM horse Mb in 50 mM sodium phosphate buffer (pH 7.4) was deoxygenated using 3 equivalents of sodium dithionite. Excess dithionite was removed by desalting column. Deoxy-Mb at the concentration of 69 μM was mixed with CORM (50× excess) and incubated in 37° C. Visible spectra in the range of 550-600 nm were recorded at every 10 minutes. Overlaid spectra of these samples show a gradual transformation of deoxy-Mb to carboxy-Mb (FIG. 2). The percent CO released calculated was approximately 1% in one hour."}, "[2]": {"assay": "CO released in the presence of H2O2, CO meter", "assay_type": "physicochemical", "protocol": "as §1\n(§2) The two tested are the common ROS formed naturally in the cells—a non-radical hydrogen peroxide (H2O2) and Fenton reagent which is a more reactive hydroxyl radical (.OH) formed from Fe^2+ and H2O2. Four mole of CORCB compounds were mixed in an aqueous solution with ROS and incubated in a sealed vessel. At respective times, the head space air was injected into the meter to read the amount of CO produced. For analysis by NMR spectroscopy, the reaction mixture was prepared in NMR tube in D2O solvent and incubated for the amount of time indicated."}, "[3]": {"assay": "CO released on auto-decomposition in water at 37° C., head space measured with CO meter", "assay_type": "physicochemical", "protocol": "as §1\nCO liberated from the molecules and coming out to the head space are detected and quantified by using CO meter."}, "[4]": {"system": "LPS-induced TNF-α production in mouse macrophage cells (RAW264.7)", "assay": "Inhibition of LPS-induced TNF-α production (ELISA)", "assay_type": "cell-based", "procedure": "To test the anti-inflammatory effect of CORCBs, mouse macrophage cells (RAW264.7) were used. 2×10^4 cells per well was seeded in 96-well plate with different concentrations of CORCBs. Cells were incubated in DMEM with 10% FBS at 37° C. and 5% CO2 for 24 hours. LPS (100 ng/mL) was then added and incubated for 4 additional hours. The media containing secreted inflammatory cytokines were collected and these cells were subjected to cell viability test to check their viability. TNF-α concentration in each sample was measured by ELISA assay."}, "[5]": {"assay": "CO generated at different pHs, CO meter", "assay_type": "physicochemical", "conditions": "compound per FIG. 10 legend", "protocol": "FIG. 10 graphically depicts the percent CO generated by CORCB-1 in different pHs monitored by the CO meter. CORCB was dissolved in water with adjusted pH before incubation in 37° C. After 12 hours, CO gas in the head space was analyzed using a CO meter.\nCO releasing property of CORCBs is not limited only to the neutral environment. It works in any pH ranging from 2 to 12 as evident in FIG. 10. […] CO is released at the highest amount in the acidic condition of pH 2 with more than 25% in 12 hours."}, "[6]": {"assay": "Decomposition (amine release) in the presence of H2O2 monitored by 1H NMR", "assay_type": "physicochemical", "protocol": "as §2\nThe reaction with H2O2 is slow-acting, therefore, NMR spectroscopy can be used for monitoring the rate."}, "[7]": {"system": "LPS-induced TNF-α production in RAW264.7 cells", "assay": "LPS-induced TNF-α production with CORCB plus H2O2", "assay_type": "cell-based, mouse", "procedure": "RAW264.7 cells at the density of 2×10^4 cells per well in 96-well plate were treated with varying concentrations of CORCB plus different concentrations of H2O2."}, "[8]": {"system": "normal human skin fibroblast cells (Hs 895.Sk)", "conditions": "CORCB-1 (3 mM) + imatinib 20 or 40 μM, day 4 and 6", "procedure": "This was tested by using a chemotherapy drug, imatinib, in normal human skin fibroblast cells (Hs 895.Sk). The cultures were treated with 20 μM and 40 μM concentration of imatinib as controls to see their toxicity. Samples with mixtures of CORCB-1 and imatinib were also incubated and cell viability was determined on 2, 4, and 6 days. Media was exchanged every 2 days with fresh reagents."}, "[9]": {"system": "normal fibroblast cells (Hs 895.Sk)", "assay": "Anti-tumor effect of CORCB-1 in the presence of ROS, normal cells", "assay_type": "cell-based, human", "conditions": "1 mM CORCB-1 + 0.2 mM H2O2, 6 days", "protocol": "(§3) To further test the anti-tumor effect of CORCBs in the presence of ROS, fibroblast tumor cells (Hs 895.T) and normal fibroblast cells (Hs 895.Sk) were incubated with 1 mM of CORCB-1 and 0.2 mM of H2O2 mixed in the DMEM media without FBS. Media was exchanged every 2 days for longer incubation periods such as 4 and 6 days. […] Both tumor and normal cells are close to 100% viable at 2 days, but for longer treatment periods, tumor cells growth rate declines and normal cell growth remains steady. […] Normal cells are preserved under stressed condition while tumor cells are destroyed."}, "[10]": {"assay": "Anti-tumor effect of CORCB-1 in the presence of ROS, normal cells", "assay_type": "cell-based, human", "conditions": "human, Hs 895.Sk normal fibroblast cells; 1 mM CORCB-1 + 0.2 mM H2O2, 2 days; read-out: % viable normal cells at 2 days", "protocol": "as §3"}, "physchem": {"assay": "physchem", "protocol": "The kinetics of compound decomposition was followed by observing the ratio of the amount of free amine group to the original compound using ^1H NMR. For instance, Hexamethylenetetramine carboxyborane (CORCB-1) in D2O at the concentration of 12 mg/mL was incubated at 37° C. in the standard NMR tube. ^1H NMR spectra were obtained at different time points to study the kinetics of product formation. […] The ratio of integrated peaks were used for determining the percent of each species present and plotted as a function of time to show the kinetics of auto-decomposition.\n^1H, ^11B, and ^13C NMR spectra were recorded at different time points to study the kinetics as well as to observe transformation of CORCB-1 into the products.\nIn order to determine whether CO is produced in physiological condition, CORCB acid forms were dissolved in aqueous solution at neutral pH. The solution was then subjected to incubation at 37° C. for extended period of time. For studies using NMR, CORCBs were dissolved in D2O. The kinetics of CORCB molecules breaking down to produce CO is determined by taking ^1H NMR spectra at various time points (FIG. 3).\nCORCB sodium and ammonium salts were also tested for decomposition by using ^1H NMR spectroscopy. Samples were set up as in Example 1 and rate of decomposition measured (FIG. 4)."}, "[11]": {"system": "fibroblast tumor cells (Hs 895.T) and normal fibroblast cells (Hs 895.Sk)", "procedure": "Cells were seeded at the density of 3×10^3 cells per well in 96-well plate with different concentrations of CORCBs in DMEM media without FBS, and incubated at 37° C. with 5% CO2 for 2 days."}, "[12]": {"conditions": "24 hours, 1.5 equivalents H2O2, 37° C."}}}
{"smiles": "O=C(O)B[N+]12CN3CN(CN(C3)C1)C2", "note": "[CORCB-1, Hexamethylenetetramine carboxyborane]", "values": [{"measurement": "cell viability after the TNF-α assay (in words)", "setting": "RAW264.7 cells", "value": "all cells were still healthy"}, {"measurement": "Rate of % CO released by CORCBs, With Fenton Reagent", "setting": "[1]", "value": "60.90 ± 0.52", "unit": "%"}, {"measurement": "percent CO released (Mb assay)", "setting": "horse Mb", "value": "approximately 1%"}, {"measurement": "% CO produced by CO meter with H2O2", "setting": "[2]; 1.5 equivalents H2O2, 24 hours", "value": 12, "unit": "%"}, {"measurement": "CO release rate at 24 hours, CO meter, With 1.5x H2O2", "setting": "[2]; [12]", "value": 12.10, "unit": "%"}, {"measurement": "Rate of % CO released by CORCBs, With H2O2", "setting": "[2]; per 24 hour, H2O2 equivalents not given", "value": "20.86 ± 0.82", "unit": "%"}, {"measurement": "CO release rate", "setting": "[3]; 37° C.", "value": "approximately 1 % per hour"}, {"measurement": "% CO liberated at 24 hours by CO meter", "setting": "[3]; 24 hours, 37° C.", "value": 23, "unit": "%"}, {"measurement": "CO release rate at 24 hours, CO meter, Autodecomposition", "setting": "[3]; 24 hours, 37° C.", "value": 24, "unit": "%"}, {"measurement": "Rate of % CO released by CORCBs, Autodecomposition", "setting": "[3]; per 24 hour", "value": "23.47 ± 0.38", "unit": "%"}, {"measurement": "amount of TNF-α secreted, compound alone", "setting": "[4]; 1 mM, LPS only = 100%", "value": "about 80%"}, {"measurement": "effect on LPS-induced TNF-α production (in words)", "setting": "[4]; 24 hours compound, then LPS 100 ng/mL 4 hours", "value": "inhibits the production of TNF-α"}, {"measurement": "CO released at pH 2", "setting": "[5]; pH 2, 12 hours, 37° C.", "value": "more than 25%"}, {"measurement": "CO release rate as a function of pH (in words)", "setting": "[5]; pH 2 to 12, 12 hours", "value": "the lowest in pH 7"}, {"measurement": "% decomposition / free amine released by 1H NMR with H2O2", "setting": "[6]; 1.5 equivalents H2O2, 24 hours", "value": 51, "unit": "%"}, {"measurement": "Decomposition rate at 24 hours, 1H NMR, With 1.5x H2O2", "setting": "[6]; [12]", "value": 50.90, "unit": "%"}, {"measurement": "amount of TNF-α secreted, together with H2O2", "setting": "[7]", "value": "about 25%"}, {"measurement": "survival rate, mixture of imatinib and CORCB-1", "setting": "[8]", "value": "around 70%"}, {"measurement": "normal cell growth, 6th day", "setting": "[9]", "value": 89, "unit": "%"}, {"measurement": "viability at 2 days, 1 mM", "setting": "[10]", "value": "~100", "unit": "%"}, {"measurement": "half-life at 12 mg/mL", "setting": "physchem", "value": 3.5, "unit": "days"}, {"measurement": "Decomposition rate at 24 hours, 1H NMR, Autodecomposition", "setting": "physchem; 24 hours, 37° C.", "value": 19, "unit": "%"}, {"measurement": "rate of auto-decomposition", "setting": "physchem; as stated in Example 10", "value": "around 20 % per day"}, {"measurement": "rate of decomposition", "setting": "physchem; in the beginning, acid form, D2O, 37° C.", "value": 0.85, "unit": "% per hour"}, {"measurement": "selectivity of growth stimulation (in words)", "setting": "[11]; Hs 895.Sk versus Hs 895.T, 48 hours", "value": "more selective towards the normal fibroblast cells"}, {"measurement": "viable cells compared with untreated cells", "setting": "[11]; human, 48 h", "value": "~180", "unit": "%"}]}
